The values that follow come from patent US9062078B2, “Substituted 7-azabicyles and their use as orexin receptor modulators” (priority 2013, dated 2015).

In test [1] the target is human orexin 2 receptor (Homo sapiens (Human), UniProt O43614). In words: Human orexin 2 receptor radioligand binding (competitive, [3H]-EMPA, HEK293 cell preparations).
Test [2] has as its target human orexin 1 receptor (Homo sapiens (Human), UniProt O43613). In words: Human orexin 1 receptor radioligand binding (competitive, [3H]-SB674042, CHO cell preparations).
Setting [3] is: human orexin 2 receptor, [3H]-EMPA competition binding, read-out: hOX2 Ki (nm).
[4] abbreviates: human orexin 1 receptor, [3H]-SB674042 competition binding, read-out: hOX1 Ki (nm).

Read-outs that look alike come from different tables or passages of the source.

Sequence of human orexin 1 receptor (O43613 whole entry): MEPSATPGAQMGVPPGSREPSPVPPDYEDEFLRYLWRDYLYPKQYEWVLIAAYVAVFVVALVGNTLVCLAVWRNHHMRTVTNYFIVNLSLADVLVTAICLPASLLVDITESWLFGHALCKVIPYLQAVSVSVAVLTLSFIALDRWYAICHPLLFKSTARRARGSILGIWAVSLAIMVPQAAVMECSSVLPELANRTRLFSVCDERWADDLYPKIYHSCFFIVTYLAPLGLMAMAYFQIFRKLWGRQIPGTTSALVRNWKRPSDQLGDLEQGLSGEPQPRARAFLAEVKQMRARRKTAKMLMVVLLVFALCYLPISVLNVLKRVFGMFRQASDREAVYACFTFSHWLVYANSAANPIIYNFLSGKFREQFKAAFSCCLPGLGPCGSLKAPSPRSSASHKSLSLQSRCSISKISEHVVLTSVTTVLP
Sequence of human orexin 2 receptor (O43614 whole entry): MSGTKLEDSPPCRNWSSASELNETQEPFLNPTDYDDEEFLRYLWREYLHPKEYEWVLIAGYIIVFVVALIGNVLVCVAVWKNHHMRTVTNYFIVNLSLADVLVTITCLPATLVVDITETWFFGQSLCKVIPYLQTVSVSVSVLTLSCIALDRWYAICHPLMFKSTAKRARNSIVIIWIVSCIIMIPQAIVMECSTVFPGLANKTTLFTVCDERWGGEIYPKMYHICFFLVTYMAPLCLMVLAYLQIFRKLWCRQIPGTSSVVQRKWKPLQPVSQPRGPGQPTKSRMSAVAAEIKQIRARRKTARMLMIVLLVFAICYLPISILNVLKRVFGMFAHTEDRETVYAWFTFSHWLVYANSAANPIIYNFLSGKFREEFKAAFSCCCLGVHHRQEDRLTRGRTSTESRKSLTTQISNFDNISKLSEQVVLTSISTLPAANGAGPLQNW

For orientation: Ki means a measure of affinity in units of concentration, obtained from inhibition or displacement. As to `Cc1noc(-c2ccccc2C(=O)N2C3CCC2C(COc2nccc(C(F)(F)F)n2)C3)n1` (racemic) [Example 133, (±)-(2-(3-methyl-1,2,4-oxadiazol-5-yl)phenyl)(2-(((4-(trifluoromethyl)pyrimidin-2-yl)oxy)methyl)-7-azabicyclo[2.2.1]heptan-7-yl)methanone], the results for the Ki in test [1] (setting [3]) and in test [2] (setting [4]) were 950 nM and 1400 nM, respectively.

Take `Cc1ccc(-c2ncccn2)c(C(=O)N2C3CCC2C(COc2cnc4ccccc4n2)C3)c1` (racemic) [Example 38, (±)-(5-methyl-2-(pyrimidin-2-yl)phenyl)(2-((quinoxalin-2-yloxy)methyl)-7-azabicyclo[2.2.1]heptan-7-yl)methanone]: the Ki in test [1] (setting [3]) is 383 nM; in test [2] (hOX1 Ki (nm)) it was 120 nM.

Take `O=C(c1cccc(F)c1-n1nccn1)N1C2CCC1C(COc1nccc(C(F)(F)F)n1)C2` (racemic) [Example 134, (±)-(3-fluoro-2-(2H-1,2,3-triazol-2-yl)phenyl)(2-(((4-(trifluoromethyl)pyrimidin-2-yl)oxy)methyl)-7-azabicyclo[2.2.1]heptan-7-yl)methanone]: the Ki in test [1] (hOX2 Ki (nm)) worked out at 690 nM; in test [2] (hOX1 Ki (nm)) it was 1500 nM.

`Cc1noc(-c2ccccc2C(=O)N2C3CCC2C(COc2cccc(C(F)(F)F)n2)C3)n1` (racemic) [Example 145, (±)-(2-(3-methyl-1,2,4-oxadiazol-5-yl)phenyl)(2-(((6-(trifluoromethyl)pyridin-2-yl)oxy)methyl)-7-azabicyclo[2.2.1]heptan-7-yl)methanone]: the results for the Ki in test [1] (hOX2 Ki (nm)) and in test [2] (setting [4]) were 330 nM and 340 nM, respectively.

On to `O=C(c1cccc(F)c1-n1nccn1)N1C2CCC1C(COc1cnc3ccccc3n1)C2` (racemic) [Example 150, (±)-(3-fluoro-2-(2H-1,2,3-triazol-2-yl)phenyl)(2-((quinoxalin-2-yloxy)methyl)-7-azabicyclo[2.2.1]heptan-7-yl)methanone], for which the Ki in test [1] (setting [3]) was found to be 990 nM; in test [2] (setting [4]), 180 nM.

Regarding `Cc1cc(C)nc(OCC2CC3CCC2N3C(=O)c2ccc(C)nc2-n2nccn2)n1` (racemic) [Example 151, (±)-(2-(((4,6-dimethylpyrimidin-2-yl)oxy)methyl)-7-azabicyclo[2.2.1]heptan-7-yl)(6-methyl-2-(2H-1,2,3-triazol-2-yl)pyridin-3-yl)methanone], the Ki in test [1] (setting [3]) and in test [2] (setting [4]) was ≥ 10000 nM throughout.

Take `O=C(c1cc(F)ccc1-n1nccn1)N1C2CCC1C(COc1cnc3ccccc3n1)C2` (racemic) [Example 166, (±)-(5-fluoro-2-(2H-1,2,3-triazol-2-yl)phenyl)(2-((quinoxalin-2-yloxy)methyl)-7-azabicyclo[2.2.1]heptan-7-yl)methanone]: the Ki in test [1] (setting [3]) came out at 1140 nM; in test [2] (setting [4]), 106 nM.

For the compound `Cc1ccc(-n2nccn2)c(C(=O)N2C3CCC2C(COc2cnc4ccccc4n2)C3)c1` (racemic) [Example 36, (±)-(5-methyl-2-(2H-1,2,3-triazol-2-yl)phenyl)(2-((quinoxalin-2-yloxy)methyl)-7-azabicyclo[2.2.1]heptan-7-yl)methanone], the values for the Ki in test [1] (setting [3]) and in test [2] (setting [4]) were 107 nM and 70 nM, respectively.

As for `Cc1ccc(C(=O)N2C3CCC2C(COc2nccc(C(F)(F)F)n2)C3)c(-n2nccn2)n1` (racemic) [Example 131, (±)-(6-methyl-2-(2H-1,2,3-triazol-2-yl)pyridin-3-yl)(2-(((4-(trifluoromethyl)pyrimidin-2-yl)oxy)methyl)-7-azabicyclo[2.2.1]heptan-7-yl)methanone], the Ki in test [1] (hOX2 Ki (nm)) and in test [2] (hOX1 Ki (nm)) was ≥ 10000 nM in each case.

Consider `Cc1ccc(OCC2CC3CCC2N3C(=O)c2ccccc2-c2nc(C)no2)nc1` (racemic) [Example 137, (±)-(2-(3-methyl-1,2,4-oxadiazol-5-yl)phenyl)(2-(((5-methylpyridin-2-yl)oxy)methyl)-7-azabicyclo[2.2.1]heptan-7-yl)methanone], for which the results for the inhibition constant (Ki) in test [1] (setting [3]) and in test [2] (setting [4]) were 425 nM and 950 nM, respectively.

For `O=C(c1cc(F)ccc1-n1nccn1)N1C2CCC1C(CNc1ccccn1)C2` (racemic) [Example 169, (±)-(5-fluoro-2-(2H-1,2,3-triazol-2-yl)phenyl)(2-((pyridin-2-ylamino)methyl)-7-azabicyclo[2.2.1]heptan-7-yl)methanone], the Ki was found to be 2530 nM in test [1] (setting [3]) and 9000 nM in test [2] (setting [4]).

As to `Cc1ccc(OCC2CC3CCC2N3C(=O)c2cc(C)ccc2-n2nccn2)nc1` (racemic) [Example 19, (±)-(5-methyl-2-(2H-1,2,3-triazol-2-yl)phenyl)(2-(((5-methylpyridin-2-yl)oxy)methyl)-7-azabicyclo[2.2.1]heptan-7-yl)methanone], the Ki in test [1] (setting [3]) was found to be 44 nM; in test [2] (setting [4]), 12 nM.

In the case of `Cc1cc(C)nc(OCC2CC3CCC2N3C(=O)c2ccccc2-c2nc(C)no2)n1` (racemic) [Example 153, (±)-(2-(((4,6-dimethylpyrimidin-2-yl)oxy)methyl)-7-azabicyclo[2.2.1]heptan-7-yl)(2-(3-methyl-1,2,4-oxadiazol-5-yl)phenyl)methanone], the Ki was determined as 440 nM in test [1] (setting [3]) and 1100 nM in test [2] (setting [4]).

Regarding `O=C(c1cccc2ccccc12)N1C2CCC1C(COc1ccc(F)cn1)C2` (racemic) [Example 24, (±)-2-(((5-fluoropyridin-2-yl)oxy)methyl)-7-azabicyclo[2.2.1]heptan-7-yl)(naphthalen-1-yl)methanone], the Ki was 164 nM in test [1] (setting [3]) and 122 nM in test [2] (setting [4]).

In the case of `O=C(c1ccccc1-n1nccn1)N1C2CCC1C(COc1cnc3ccccc3n1)C2` (racemic) [Example 34, (±)-(2-(2H-1,2,3-triazol-2-yl)phenyl)(2-((quinoxalin-2-yloxy)methyl)-7-azabicyclo[2.2.1]heptan-7-yl)methanone], the Ki was 467 nM in test [1] (setting [3]) and 60 nM in test [2] (setting [4]).

Consider `Cc1cccc(OCC2CC3CCC2N3C(=O)c2ccccc2-c2nc(C)no2)n1` (racemic) [Example 141, (±)-(2-(3-methyl-1,2,4-oxadiazol-5-yl)phenyl)(2-(((6-methylpyridin-2-yl)oxy)methyl)-7-azabicyclo[2.2.1]heptan-7-yl)methanone], for which the Ki in test [1] (setting [3]) worked out at 300 nM; in test [2] (setting [4]) it was 280 nM.

For the compound `Cc1cc(C)nc(OCC2CC3CCC2N3C(=O)c2c(C)noc2-c2ccccc2)n1` (racemic) [Example 40, (±)-2-(((4,6-dimethylpyrimidin-2-yl)oxy)methyl)-7-azabicyclo[2.2.1]heptan-7-yl)(3-methyl-5-phenylisoxazol-4-yl)methanone], the inhibition constant (Ki) in test [1] (setting [3]) was 1200 nM; in test [2] (setting [4]), 5000 nM.

For the compound `O=C(c1c(F)cccc1-c1ncccn1)N1C2CCC1C(COc1ccc(F)cn1)C2` (racemic) [Example 31, (±)-(2-fluoro-6-(pyrimidin-2-yl)phenyl)(2-(((5-fluoropyridin-2-yl)oxy)methyl)-7-azabicyclo[2.2.1]heptan-7-yl)methanone], the results for the Ki in test [1] (setting [3]) and in test [2] (setting [4]) were 122 nM and 33 nM, respectively.

Turning to `O=C(c1ccccc1-n1nccn1)N1C2CCC1C(COc1ccc(F)cn1)C2` (racemic) [Example 22, (±)-(2-(2H-1,2,3-triazol-2-yl)phenyl)(2-(((5-fluoropyridin-2-yl)oxy)methyl)-7-azabicyclo[2.2.1]heptan-7-yl)methanone], the Ki came out at 50 nM in test [1] (setting [3]) and 47 nM in test [2] (setting [4]).

`Cc1ccc(OCC2CC3CCC2N3C(=O)c2cccc(F)c2-n2nccn2)nc1` (racemic) [Example 138, (±)-(3-fluoro-2-(2H-1,2,3-triazol-2-yl)phenyl)(2-(((5-methylpyridin-2-yl)oxy)methyl)-7-azabicyclo[2.2.1]heptan-7-yl)methanone]: the Ki in test [1] (setting [3]) came to 250 nM; in test [2] (setting [4]), 606 nM.

In the case of `Cc1ccnc(OCC2CC3CCC2N3C(=O)c2cc(C)ccc2-n2nccn2)c1` (racemic) [Example 17, (±)-(5-methyl-2-(2H-1,2,3-triazol-2-yl)phenyl)(2-(((4-methylpyridin-2-yl)oxy)methyl)-7-azabicyclo[2.2.1]heptan-7-yl)methanone], the Ki in test [1] (setting [3]) stood at 69 nM; in test [2] (setting [4]) it was 41 nM.

With `Cc1ccc(C(=O)N2C3CCC2C(COc2nccc(C(F)(F)F)n2)C3)c(-n2ccnn2)n1` (racemic) [Example 132, (±)-(6-methyl-2-(1H-1,2,3-triazol-1-yl)pyridin-3-yl)(2-(((4-(trifluoromethyl)pyrimidin-2-yl)oxy)methyl)-7-azabicyclo[2.2.1]heptan-7-yl)methanone], the Ki in test [1] (setting [3]) is 7400 nM; in test [2] (hOX1 Ki (nm)), ≥ 10000 nM.

Take `Cc1ccc(-n2nccn2)c(C(=O)N2C3CCC2C(COc2cc(C)nc(C(F)(F)F)n2)C3)c1` (racemic) [Example 180, (±)-(5-methyl-2-(2H-1,2,3-triazol-2-yl)phenyl)(2-(((6-methyl-2-(trifluoromethyl)pyrimidin-4-yl)oxy)methyl)-7-azabicyclo[2.2.1]heptan-7-yl)methanone]: the Ki in test [1] (setting [3]) was determined as 32 nM; in test [2] (hOX1 Ki (nm)), 33 nM.

Turning to `O=C(c1cccc2cccnc12)N1C2CCC1C(COc1ccc(F)cn1)C2` (racemic) [Example 23, (±)-2-(((5-fluoropyridin-2-yl)oxy)methyl)-7-azabicyclo[2.2.1]heptan-7-yl)(quinolin-8-yl)methanone], the Ki in test [1] (setting [3]) turned out to be 1500 nM; in test [2] (setting [4]), 322 nM.

`O=C(c1ccccc1-c1cccs1)N1[C@H]2CC[C@@H]1[C@@H](COc1ccc(F)cn1)C2` (single isomer, unassigned) [Example 12B, ((1R*,2S*,4S*)-2-(((5-fluoropyridin-2-yl)oxy)methyl)-7-azabicyclo[2.2.1]heptan-7-yl)(2-(thiophen-2-yl)phenyl)methanone]: the figures for the Ki in test [1] (hOX2 Ki (nm)) and in test [2] (hOX1 Ki (nm)) were 5 nM and 3 nM, respectively.

In the case of `Cc1ccc(-n2nccn2)c(C(=O)N2C3CCC2C(COc2nc4ccccc4nc2C(F)(F)F)C3)c1` (racemic) [Example 21, (±)-(5-methyl-2-(2H-1,2,3-triazol-2-yl)phenyl)(2-(((3-(trifluoromethyl)quinoxalin-2-yl)oxy)methyl)-7-azabicyclo[2.2.1]heptan-7-yl)methanone], the values for the Ki in test [1] (setting [3]) and in test [2] (hOX1 Ki (nm)) were 487 nM and 300 nM, respectively.
